In patent publication US4535081A, “Antiallergic and antiulcer 1-oxo-1H-thiazolo[3,2-a]pyrimidine-2-carboxamides and intermediates therefor” (Pfizer Inc., priority 1983, dated 1985):

Legend:
[1] = tested on: isolated guinea pig ileum (histamine); assay: Isolated ileum spasm, histamine; settings: 10^-8 to 10^-4 M
[2] = tested on: blood pressure, heart rate and pressor responses; assay: Cardiovascular effects in anesthetized dogs; type: in vivo, dog; settings: cumulative 5 and 15 mg/kg, i.v.
[3] = Cardiovascular effects in anesthetized dogs; type: in vivo, dog; settings: dog, in vivo; cumulative intravenous doses; read-out: ratio of cardiovascular-effect dose to maximally effective intravenous antiallergy dose
[4] = tested on: IgG (hyperimmune antiserum) PCA reaction; assay: Oral activity in PCA test, IgG; type: in vivo; settings: Rattus norvegicus, 3 mg./kg., read-out: Oral Activity (% of Protection) in the PCA Test, IgG
Protocol: The antiallergy property of the compounds of this invention is evaluated by the passive cutaneous anaphylaxis (PCA) test (Ovary, J. Immun., 81, 355, 1958). In the PCA test, normal animals are injected intradermally (i.d.) with antibodies contained in serum obtained from actively sensitized animals. The animals are then challenged intravenously with antigen mixed with a dye such as Evans' Blue. The increased capillary permeability caused by the antigen-antibody reaction causes the dye to leak from the site of the antibody injection. The test animals are then asphyxiated and the intensity of the reaction determined by measuring the diameter and intensity of the blue coloration on the inner surface of the animals' skin.
The ability of agents to interfere with PCA reactions is measured in male Charles River Wistar rats, 170-210 g. Reaginic antiserum, rich in IgE antibodies, is prepared according to Petillo et al., Int. Arch. Allergy, 44, 309 (1973). Hyperimmune antiserum rich in IgG antibodies to hen egg albumin is prepared according to Orange et al., J. Exptl. Med., 127, 767 (1968). Forty-eight hours prior to antigen challenge, the reaginic antiserum is injected intradermally (i.d.) into the shaved skin of a normal rat's back; 5 hours before challenge the hyperimmune antisera is similarly injected. At a third site 60 mcg. histamine dihydrochloride and 0.5 mcg. serotonin creatinine sulfate are injected i.d. just prior to antigen challenge as a check for antihistaminic, antiserotonin and unspecific types of blockage; the compounds of the instant invention or saline are then administered i.v. and immediately followed by the challenge of 5 mg. egg albumen and 2.5 mg. Evans' Blue dye in saline. In the case of oral administration Evans' Blue dye and egg albumin are given 5 minutes after administration of the drug. Thirty minutes later the animals are asphyxiated using chloroform and the skin of the back removed and reversed for observation. A score is assigned each injection site equal to the product of the diameter of the site in mm. and a grade of 0.1, 0.5, 1, 2, 3 or 4 proportional to intensity of dye coloration. The scores for a given injection site are summed for each group of five animals and compared to the saline treated controls. The difference is expressed as percent blockage due to the compound employed.
Compounds representative of those of the present invention are tested for antiallergy activity by the above-described procedure and the resulting activities are reported as the degree (%) of protection.

[5] = tested on: urinary volume output and sodium and potassium excretion; assay: Diuretic activity; type: in vivo; settings: oral
Protocol: When given orally, it caused a dose-related increase in urinary volume output at doses in the range 0.3 to 5 mg/kg. […] These findings indicate that the dose-response range for diuretic activity is considerably higher than that for antiulcer effects and just below that for antiallergy effects (1 to 10 mg/kg).

For `O=C(Nc1nnn[nH]1)c1cnc2sc3c(n2c1=O)CCCC3` [Compound III, N-(5-Tetrazolyl)-1-oxo-1H-cyclohexenothiazolo[3,2-a]pyrimidine-2-carboxamide], which “antagonism of spasm of isolated guinea pig ileum” value [1] is on record?
Its value is “does not antagonize spasms”.

What about the blood pressure [2] of the same compound?
Its blood pressure is “transient hypotension”.

And the heart rate [2]?
Its heart rate is “variable changes in heart rate”.

What about the “pressor responses to epinephrine and bilateral carotid occlusion” value [2] of the same compound?
Its value is “diminished slightly”.

What about the selectivity ratio [3] of the same compound?
The selectivity ratio was 5 to 15.

What about the inhibition in vivo at 3 mg/kg [4] of the same compound?
Its inhibition in vivo at 3 mg/kg is 45%.

What about the “dose range of dose-related increase in urinary volume output” value [5] of the same compound?
Its value is 0.3 to 5 mg/kg.

What about the “maximum increase in urinary volume output” value ([5]; 0.3 to 5 mg/kg) of the same compound?
The value was “twofold increase in volume output”.

And the “sodium and potassium excretion” value ([5]; 0.3 to 5 mg/kg)?
Its value is “an increase in sodium and potassium excretion was observed”.

And the “urinary concentrations of sodium and potassium ions” value ([5]; 0.3 to 5 mg/kg)?
Its value is “unchanged”.
